Experimental data: patent US10435388B2, “Selective inhibitors of clinically important mutants of the EGFR tyrosine kinase” (CS PHARMATECH LIMITED, priority 2016, dated 2019)
“And” between values parts separate entries of the source, which are not always exact repeats. Equal entries are not always repeated. Structures can show the parent of a compound that is named as a salt.

Legend:
H1975 cells (DM) = experiment: H1975 inhibition assay (cell proliferation), Method B; type: cell-based; conditions: cellular proliferation, several runs
Mouse in vivo PK study = conditions: male CDI mice; for F: PO 10 mg/kg vs IV 1 mg/kg; for clearance / half-life / AUC / Cmax: mouse, plasma; for clearance / half-life: IV 1 mg/kg; for half-life: read-out: T1/2 (IV) (converted); for AUC / Cmax: PO 10 mg/kg
Experimental: To determine the drug concentration in plasma of NJB-342, NJB-348 and NJB-463 following intravenous and oral administration in male CDI Mice, to get the pharmacokinetic profile and PK parameters
Test animals: healthy male CDI mice (body weight 20-30 g, 18 mice, free access to food and water), provided by Sibeifu laboratory.
Dose Level and dose route: dosed the animals via intravenous injection from tail vein for IV group (1 mg/kg, 5 mL/kg, 10% DMSO/40% PEG400/50% water), dosed the animals via oral gavage for PO group (10 mg/kg, 10 mL/kg, (10% DMSO/40% PEG400/50% water), respectively.
Samples collection: the healthy animals were used, weighed the bodyweight and marked at tail and cage card prior to dosing. Blood samples (0.03 mL per time point) were collected from dorsal metatarsal vein at 0.083, 0.25, 0.5, 1, 2, 4, 8, 24 h post dose for IV group and at 0.25, 0.5, 1, 2, 4, 8, 24 h post dose for PO group, the terminal time point was collected from heart (˜0.3 mL). The blood samples were put into the tube with heparin-Na coated and then put on the cold box, centrifuged at 4° C. 4000 g, 5 minutes immediately after collecting all samples per time point to get plasma. The plasma samples were stored in a freezer at −75±15° C. prior to analysis.

INSR = biological target: T1, INSR (Homo sapiens, UniProt P06213); experiment: INSR inhibition assay (Caliper EZ Reader); type: biochemical; conditions: enzyme assay
T1 construct: purchased CARNA BIOSCIENCE 08-142

PC9 cells (SM) = experiment: PC-9 growth inhibition assay (cell proliferation), Method B; type: cell-based, human; conditions: cellular proliferation, several runs
IGF-1R = biological target: T2, IGF-1R (Homo sapiens, UniProt P08069); experiment: IGF-1R inhibition assay (Caliper EZ Reader); type: biochemical; conditions: enzyme assay
T2 construct: purchased CARNA BIOSCIENCE 08-141
Procedure, shortened: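 IGF-1R protein and peptide substrate were preincubated 30 min at RT with compound. Phosphorylated and non-phosphorylated fluorescent peptides were separated by mobility shift, and the read-out is the conversion ratio.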

[1] = test system: p-EGFR in PC9 cells (Exon 19 deletion EGFR); experiment: Exon19 deletion EGFR (activating single mutant) PC-9 cellular autophosphorylation assay; type: cell-based, human; conditions: Homo sapiens, PC-9, 2 h, 2 h treatment, ELISA
Experimental: (§1) Cellular EGFR Autophosphorylation Assays.
The human lung cell line PC9 (Exon 19 deletion EGFR) is obtained from the American type Culture Collection. […] Cells are grown in a humidified incubator at 37° C. with 5% CO2, Assays to measure cellular phosphorylation of endogenous p-EGFR in cell Iysates are carried out according to the protocol described in the R&D Systems DuoSet IC Human Phospho-EGF R ELISA (R&D Systems catalogue number #DYCI095). 40 μL of cells are seeded (10000 cells/well) in growth medium in Corning black, clear-bottomed 384-well plates and incubated at 37° C., with 5%0/CO2 overnight. […] Plates are incubated for a further 2 h, then following aspiration of medium, 40 μL×lysis buffer is added to each well. Greiner black high bind 384 well plates are coated with capture antibody and then blocked with 3% BSA. Following removal of block, 15 μL of lysate are transferred to the Greiner black high bind 384 well plates and incubated for 2 hours. Following aspiration and washing of the plates with PBS, 20 μL of detection antibody are added and incubated for 2 hours. […] The data obtained with each compound are exported into a suitable software package (such as Origin) to perform curve fitting analysis.

[2] = test system: p-EGFR in A431 cells (wild type EGFR, EGF stimulated); experiment: Wild type EGFR A431 autophosphorylation inhibition assay (ELISA); type: cell-based, human; conditions: Homo sapiens, A-431, cellular EGFR autophosphorylation, 2 h treatment, EGF stimulation 10 min
Experimental: as §1
Wild Type EGFR A431 Autophosphorylation Inhibition Assay (ELISA).
After 2 hour treatment with test compounds, add 4.5 μL of EGF (1 μg/mL) into each well and stimulate for 10 min. The rest of the procedure was processed in the same manner as described above for H1975 cells.

[3] = test system: p-EGFR in H1975 cells (L858R/T790M double mutant EGFR); conditions: Homo sapiens, NCI-H1975, 2 h, read-out: H1975 IC50 (nM), cellular EGFR autophosphorylation, 2 h treatment, ELISA
A431 cells (WT) = experiment: A431 inhibition assay (cell proliferation), Method B; type: cell-based, human; conditions: cellular proliferation, several runs
Experimental: Cell Proliferation Assays—Method B
A431 Inhibition Assay, (Cell Proliferation).
The rest procedure was conducted in the same manner as described above for H1975 cells.

T1 sequence (P06213 989-1382 limits assumed): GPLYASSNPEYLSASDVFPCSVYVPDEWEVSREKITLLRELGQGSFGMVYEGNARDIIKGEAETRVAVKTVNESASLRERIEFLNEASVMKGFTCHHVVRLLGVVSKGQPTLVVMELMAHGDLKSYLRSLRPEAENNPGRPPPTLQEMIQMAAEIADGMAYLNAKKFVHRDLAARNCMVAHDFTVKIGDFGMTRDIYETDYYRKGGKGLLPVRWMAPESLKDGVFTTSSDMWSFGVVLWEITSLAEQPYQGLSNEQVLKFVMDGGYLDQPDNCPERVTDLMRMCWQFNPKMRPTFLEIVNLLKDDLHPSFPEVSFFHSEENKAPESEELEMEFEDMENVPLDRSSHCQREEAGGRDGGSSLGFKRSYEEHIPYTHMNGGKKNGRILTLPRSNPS
T2 sequence (P08069 959-1367 limits assumed): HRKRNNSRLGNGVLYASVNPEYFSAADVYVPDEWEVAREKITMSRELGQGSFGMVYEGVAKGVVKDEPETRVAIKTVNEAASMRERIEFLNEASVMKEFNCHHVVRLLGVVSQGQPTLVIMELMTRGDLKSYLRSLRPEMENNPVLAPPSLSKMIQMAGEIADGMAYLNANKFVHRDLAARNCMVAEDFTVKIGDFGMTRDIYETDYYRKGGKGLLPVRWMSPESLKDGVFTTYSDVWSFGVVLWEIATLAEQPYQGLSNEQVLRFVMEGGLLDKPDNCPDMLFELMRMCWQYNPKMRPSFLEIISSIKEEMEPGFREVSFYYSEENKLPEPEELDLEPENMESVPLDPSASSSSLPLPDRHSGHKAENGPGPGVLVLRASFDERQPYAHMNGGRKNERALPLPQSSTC

**Q.** With C=CC(=O)Nc1cc(Nc2nccc(-n3nc(NC)c4ccccc43)n2)c(OC)cc1N(C)CCN(C)C [Example 21, N-(2-((2-(Dimethylamino)ethyl)(methyl)amino)-4-methoxy-5-(4-(3-(methylamino)-1H-indazol-1-yl)pyrimidin-2-ylamino)phenyl) acrylamide] as the molecule, how does the IC50 (H1975 cells (DM); Homo sapiens, NCI-H1975, 72 h) read?
**A.** Its IC50 is 2.37 nM.

**Q.** What about the IC50 (H1975 cells (DM); 72 h) of the same molecule?
**A.** Its IC50 is 2.01 nM and 2.9 nM.

**Q.** What about the F (Mouse in vivo PK study) of the same molecule?
**A.** The F was 27.2%.

**Q.** What about the clearance (Mouse in vivo PK study) of the same molecule?
**A.** The clearance was 163 mL/min/kg.

**Q.** And the half-life (Mouse in vivo PK study)?
**A.** The half-life was 0.73 h.

**Q.** What about the AUC (Mouse in vivo PK study) of the same molecule?
**A.** Its AUC is 282 ng·h/mL.

**Q.** And the Cmax (Mouse in vivo PK study)?
**A.** Its Cmax is 86 ng/mL.

**Q.** What about the IC50 (INSR) of the same molecule?
**A.** The IC50 was 134 nM.

**Q.** And the IC50 (PC9 cells (SM); Homo sapiens, PC-9, 72 h)?
**A.** Its IC50 is 2.54 nM.

**Q.** And the IC50 (PC9 cells (SM); 72 h)?
**A.** The IC50 was 2.33 nM and 4.49 nM.

**Q.** And the IC50 (IGF-1R)?
**A.** The IC50 was 180 nM.

**Q.** Which IC50 (H1975 cells (DM); Homo sapiens, NCI-H1975, 72 h) does the source give for C=CC(=O)Nc1cc(Nc2nccc(-c3cc(C(N)=O)cc4c3ccn4C)n2)c(OC)cc1N(C)CCN(C)C [Example 34, 4-(2-((5-Acrylamido-4-((2-(dimethylamino)ethyl)(methyl)amino)-2-methoxyphenyl)amino)pyrimidin-4-yl)-1N-methyl-1H-indole-6-carboxamide hydrochloride] here?
**A.** Its IC50 is 4.62 nM.

**Q.** What about the IC50 (H1975 cells (DM); 72 h, hydrochloride) of the same molecule?
**A.** The IC50 was 3.23 nM.

**Q.** And the IC50 [1]?
**A.** The IC50 was 7.14 nM.

**Q.** What about the F (Mouse in vivo PK study) of the same molecule?
**A.** Its F is 10.3%.

**Q.** What about the clearance (Mouse in vivo PK study) of the same molecule?
**A.** Its clearance is 110 mL/min/kg.

**Q.** And the half-life (Mouse in vivo PK study)?
**A.** Its half-life is 1.11 h.

**Q.** What about the AUC (Mouse in vivo PK study) of the same molecule?
**A.** Its AUC is 165 ng·h/mL.

**Q.** And the Cmax (Mouse in vivo PK study)?
**A.** The Cmax was 58 ng/mL.

**Q.** What about the IC50 (INSR) of the same molecule?
**A.** The IC50 was 514 nM.

**Q.** What about the IC50 [2] of the same molecule?
**A.** The IC50 was 400 nM.

**Q.** And the IC50 (PC9 cells (SM); Homo sapiens, PC-9, 72 h)?
**A.** The IC50 was 7.23 nM.

**Q.** And the IC50 (PC9 cells (SM); 72 h, hydrochloride)?
**A.** The IC50 was 10.9 nM.

**Q.** And the IC50 [3]?
**A.** The IC50 was 2.19 nM.

**Q.** And the IC50 (A431 cells (WT); Homo sapiens, A-431, 72 h)?
**A.** Its IC50 is 1770 nM.

**Q.** And the IC50 (A431 cells (WT); 72 h, hydrochloride)?
**A.** Its IC50 is 928 nM.

**Q.** And the IC50 (IGF-1R)?
**A.** Its IC50 is 470 nM.

**Q.** Which results are given for C=CC(=O)Nc1cc(Nc2nccc(-n3nc(N(C)C)c4ccccc43)n2)c(OC)cc1N(C)CCN(C)C [Example 42, N-(5-((4-(3-(Dimethylamino)-1H-indazol-1-yl)pyrimidin-2-yl)amino)-2-((2-(dimethylamino)ethyl)(methyl)amino)-4-methoxyphenyl) acrylamide]?
**A.** IC50 (H1975 cells (DM); Homo sapiens, NCI-H1975, 72 h): 2.37 nM; IC50 [1]: 3.69 nM; F (Mouse in vivo PK study): 42.1%; clearance (Mouse in vivo PK study): 97 mL/min/kg; half-life (Mouse in vivo PK study): 1.32 h; AUC (Mouse in vivo PK study): 677 ng·h/mL; Cmax (Mouse in vivo PK study): 176 ng/mL; IC50 (INSR): 366 nM; IC50 [2]: 66.3 nM; IC50 (PC9 cells (SM); Homo sapiens, PC-9, 72 h): 2.29 nM; IC50 [3]: 4.19 nM; IC50 (A431 cells (WT); Homo sapiens, A-431, 72 h): 396 nM; IC50 (IGF-1R): 337 nM
